{"source": "patent US20140023653A1", "about": "“BOLDINE DERIVATIVES FOR PROMOTING BONE GROWTH” (OSTEOGENEX, INC., priority 2012, published 2014)", "target": "T1, Sclerostin (Homo sapiens, UniProt Q9BQB4)", "T1 construct": "host or cells: human embryonic cells (reporter cells)", "T1 sequence (Q9BQB4 24-213)": "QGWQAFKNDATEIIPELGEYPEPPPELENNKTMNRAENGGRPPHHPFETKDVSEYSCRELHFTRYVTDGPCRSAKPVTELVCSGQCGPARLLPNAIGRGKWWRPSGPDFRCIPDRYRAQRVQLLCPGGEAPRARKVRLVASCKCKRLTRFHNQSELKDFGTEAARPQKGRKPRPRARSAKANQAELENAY", "test": "Luciferase Wnt pathway activity assay: inhibition of sclerostin by restoration of Wnt signaling in human cells", "assay_type": "cell-based", "procedure": "The Y axis represents Relative Light Units (RLU) which represents Wnt pathway signaling. Addition of Wnt (W) activates the Wnt pathway, while addition of Sclerostin (S) inhibits the Wnt pathway. […] Compound concentrations are indicated in μM.\nBriefly, cells (e.g., human cells) are treated with a predetermined dose of a candidate compound for a complete dosing schedule.\nConcentrations are indicated along the X axis in micromolar values."}
{"smiles": "COc1cc2c(cc1O)C[C@H]1c3c(cc(O)c(OC)c3-2)CCN1C", "note": "[Compound 1, (S)-1,10-dimethoxy-6-methyl-5,6,6a,7-tetrahydro-4H-dibenzo[de,g]quinoline-2,9-diol]", "values": [{"measurement": "IC50", "value": 5, "unit": "µM"}]}
